# Experiments:
# [1] = system: J2 juveniles of Meloidogyne graminicola; assay: In vitro nematode toxicity assay, M. graminicola J2 (Example 11); settings: Vertimec 0.02 v/v % abamectin
# Method: (§1) J2 juveniles of Meloidogyne graminicola and Heterodera schachtii were isolated from Echinocloa cruss-galli roots and sugar beet roots respectively. Per treatment and species combination, 300 nematodes were isolated and divided over six wells that contained 1.5 ml of either sterilized tap water, a 100 μM C4H inhibitor solution or a 0.02 v/v % solution of the nematicide abamectin (Vertimec®, Syngenta AG). The nematodes were incubated in the dark on a slow-moving rotary shaker (50 rpm) and the number of living nematodes was counted regularly using a binocular microscope.
# (§2) To rule out definitively that the compounds of the invention operate through direct toxicity to nematodes, an in vitro toxicity assay on J2 juveniles of the nematodes Meloidogyne graminicola and Heterodera schachtii was performed.
# (§3) First, survival upon exposure to the C4H inhibitor piperonylic acid (PA) was compared to a negative control (tap water) and a positive control, the commercial nematicide Vertimec (0.02% Abamectin). A detailed survival curve is shown in FIG. 12a (M. graminicola) and FIG. 12b (H. schachtii).
# In a second experiment, a broader range of C4H inhibitors were assayed in the same manner. The toxicity of piperonylic acid (PA), piperine (PIP), 4-propynyloxybenzoic acid (4PB), and 3-(4-pyridyl)acrylic acid (3PA) to J2 juveniles of Meloidogyne graminicola was compared to a negative control (tap water) and a true nematicide (Vertimec, active ingredient abamectin).
# [2] = system: Fusarium oxysporum (isolate Foc26); assay: Onion seedling emergence with PA seed coating, Fusarium oxysporum (Example 12); format: in vivo; settings: onion seeds with 300 μM PA coating vs mock coating
# Method: (§4) Seed coatings were applied by dipping seeds in a coating solution containing 20 g/I high viscosity carboxymethylcellulose (Sigma-Aldrich, Saint Louis, USA) in distilled water as well as 300 μM of the target compound. Seeds were then dried overnight at room temperature.
# (§5) Onion seeds were coated with a 300 μM PA solution as outlined in the chemical treatments section. F. oxysporum (isolate Foc26), F. solani (isolate Fso18) and F. proliferatum (isolate Fpr18) were originally extracted from Vietnamese onion fields. Inoculum was obtained as described in the fungal culture section. The inoculum was diluted to a concentration of 1.0×10^7 spores per ml with sterile PBS buffer. The coated seeds were then soaked in the spore solution for one hour. To avoid excessive PA leaching from the PA coating, 100 μM of PA was added to the spore solution.
# (§6) After soaking in the PA solution, seeds were left to dry for thirty minutes. Twenty seeds were then sowed per pot in potting soil; three pots were used per treatment and per fungal isolate (for a total of 60 seeds per treatment-isolate combination). The pots were covered in cling film and left on a window sill at room temperature. After eight and ten days, the number of germinated seedlings per pot was counted.
# (§7) Germination experiments were analyzed by fitting a three-parameter log-logistic model as implemented in the R drc package.
# tomato = assay: Phytotoxicity of foliar spray in uninfected tomato (Example 1); format: in vivo, Solanum lycopersicum; settings: 500 μM foliar spray, 8 plants per treatment
# Method: Tomato seeds, cv. Moneymaker (Vreeken's Zaden, Dordrecht, the Netherlands) were sown on autoclaved potting soil coveed with polyethylene film and placed at 24° C. for eight days. Seedlings were then transferred to individual SAP-filled pots and placed in a growth chamber at 24° C. Plants were watered three times per week with 25 ml of quarter-strength Hoagland solution for the first two weeks and half-strength thereafter.
# Unless otherwise mentioned, all chemicals for nematode experiments were applied as a foliar spray consisting of the target compound at a concentration of 300 μM together with 0.1% (v/v) Tween 20 surfactant (Calbiochem) in distilled water. Again unless otherwise mentioned, all treatments for the nematode experiments were carried out three times: one and eight days before pathogen inoculation and seven days after pathogen inoculation. In all cases, plants were sprayed until run-off with an atomizer.
# Short-term phytotoxicity experiments (Example 1) were analyzed using non-parametric methods. For each variable, overall significance was determined using the Kruskal-Wallis test (Kruskal and Wallis, 1952), followed by a posthoc Conover-Iman test (Conover and Iman, 1981) with Hommel multiplicity correction (Hommel, 1988) if the Kruskal-Wallis test was significant. When only two groups were present, the Wilcoxon-Mann-Whitney test was used (Mann and Whitney, 1947).
# To test whether C4H inhibitors induce phytotoxic effects in crops, uninfected tomato, wheat and carrot were treated with piperonylic acid (PA), 4-iodobenzoic acid (4-IBA) and piperic acid (PIA) at a concentration of 500 μM through foliar application. At harvest, leaf area (or shoot length in the case of wheat) and primary root length were recorded. The BBCH developmental stage (Lancashire et al., 1991), a measure of developmental retardation, was used to test for effects on development. Finally, the presence of visible signs of phytotoxicity such as chlorosis, discoloration or necrosis was recorded.
# [3] = system: Pseudomonas syringae DC3000; assay: Pseudomonas syringae toxicity experiment in liquid culture (Example 21); format: cell-based; settings: 100 μM, twenty-four hours of continuous exposure
# Method: A glycerol stock of P. syringae pv. DC3000 kept at−80° C. was spotted on petri dishes containing King's B agar amended with 75 μg/ml rifampicine (Duchefa Biochemie, Haarlem, the Netherlands). The plates were incubated in the dark at 28° C. for one week. At this time point, glass test tubes containing 5 ml of liquid King's B each (without rifampicin) were inoculated with cells from the plates and placed on an orbital shaker at 200 rpm for 24 hours at 28° C. 100 μl of this liquid inoculum was transferred to fresh glass test tubes containing 5 ml of liquid King's B each (without rifampicin) amended either with 100 μM of PA or a corresponding control, which were placed on an orbital shaker at 200 rpm for 24 hours at 28° C. At this time point, the cells were diluted ten-fold with liquid King's B medium and the OD600 of the resulting suspension was determined using a spectrophotometer (BioRad SmartSpec Plus), with sterile King's B as a blanc.
# Prior to inoculation, the effect of piperonylic acid on Pseudomonas syringae DC3000 itself was also verified by growing the bacteria on liquid culture amended with piperonylic acid or a corresponding control and measuring the OD600 (as described in the materials and methods section).
# [4] = system: J2 juveniles of Heterodera schachtii; assay: In vitro nematode toxicity assay, H. schachtii J2 (Example 11); settings: PA 100 μM, Vertimec 0.02 v/v % abamectin, control 83.1±7.6
# Method: as §1, §2, §3
# [5] = system: Fusarium solani (isolate Fso18); assay: Onion seedling emergence with PA seed coating, Fusarium solani (Example 12); format: in vivo; settings: onion seeds with 300 μM PA coating vs mock coating
# Method: as §4, §5, §6, §7
compound,measurement,setting,value
"O=C(O)c1ccc2c(c1)OCO2 [PA, Piperonylic acid]",survival after 24 hours of exposure,"[1]; PA 100 μM, control 94.2±2.4",97.1±1.8%
same,survival at the end of the experiment,"[1]; second experiment, C4H inhibitor 100 μM, water control 93%",95%
same,improvement of seedling emergence,[2],+42%
same,Leaf Area,tomato; mean ± standard deviation,11.83 ± 1.70 cm^2
same,Root length,tomato; mean ± standard deviation,7.95 ± 1.83 cm
same,BBCH stage,tomato; median ± interquartile range,102 ± 1.0
same,effect on bacterial growth,[3],no effect on bacterial growth
same,OD600,"[3]; ten-fold diluted culture, printed 0.737 vs. 0.757",0.737
same,survival after 24 hours of exposure,[4],92.8±2.5%
same,improvement of seedling emergence,[5],+27%

# Reference: patent US11992011B2, “Compounds for controlling plant pathogens” (VIB VZW, priority 2017, dated 2024)
